Data as given in PubChem BioAssay AID1996.
In brackets after ≈: the same amount, converted by molar mass.

Settings: buffer; pH 7.4; 200.0 µM
`CCOC(=O)c1cc(-c2cccc([N+](=O)[O-])c2)on1` showed a solubility kinetic of 2.1 µg/mL (≈ 8.01 µM). With `O=C(O)c1ccccc1-c1ccccc1C(=O)Nc1ccc2c(c1)CCC2` the solubility kinetic was greater than 53.6 µg/mL. Molecule `Cc1cc(C)n2nc(C(=O)OCC(=O)NCc3ccc(F)cc3)nc2n1` has a solubility kinetic greater than 53.6 µg/mL. Molecule `CCn1ccc(C(=O)NCc2ccc3c(c2)OCO3)n1` has a solubility kinetic greater than 41 µg/mL. For `CCNC(=S)N1CCC(n2cnc3ccccc32)CC1`, the solubility kinetic was greater than 43.3 µg/mL. For `C[n+]1cn(Cc2ccc(C#N)cc2)c2ccccc21.[Cl-]`, the solubility kinetic was 39.4 µg/mL. `O=S(=O)(c1ccc(-c2ccccc2)cc1)N1CCCCC1` gave a solubility kinetic of less than 0.6 µg/mL. In the case of `Cc1ccc(OCC(=O)NCCNC(=O)c2ccco2)cc1C`, the solubility kinetic is reported as greater than 47.5 µg/mL. With `CCN(CC)c1cc(Cl)c2nonc2c1N` the solubility kinetic was 8.5 µg/mL (≈ 35.3 µM). For `Cc1csc(NC(=O)CSc2[nH]c(=O)ncc2C)n1`, the solubility kinetic was greater than 44.5 µg/mL. With `CN(Cc1ccc2c(c1)OCCO2)C(=O)CN1C(=O)NC2(CCCCC2)C1=O` the solubility kinetic was 50.2 µg/mL (≈ 130 µM). `Nc1nccnc1C(=O)OCC(=O)c1ccc[nH]1` showed a solubility kinetic greater than 36.9 µg/mL. Work on `Cc1ccc(N2CN(CCC3=CCCCC3)CNC2=S)cc1` yielded a solubility kinetic of 5.1 µg/mL (≈ 16.2 µM). `CC(C)C(=O)Nc1cccc(-c2nc3ncccc3o2)c1` gave a solubility kinetic of 37.5 µg/mL (≈ 133 µM). Work on `CCCc1nc2cc3c(cc2[nH]1)n(C)c(=O)n3C.Cl` yielded a solubility kinetic greater than 42.1 µg/mL. Work on `c1cncc(-c2nc(NCC3CCCO3)c3ccccc3n2)c1` (stereo not given) yielded a solubility kinetic greater than 46 µg/mL. `COc1ccccc1NC(=S)N(Cc1ccccc1)Cc1cccnc1` showed a solubility kinetic of 45.8 µg/mL (≈ 126 µM). Work on `O=C(NCCc1c[nH]c2ccccc12)c1ccc2c(c1)OCO2` yielded a solubility kinetic of 44.5 µg/mL (≈ 144 µM). Molecule `O=C(Nc1cccc(C(F)(F)F)c1)c1c(O)c2ccccc2[nH]c1=O` has a solubility kinetic of less than 0.4 µg/mL. For `CN1CCCN(C(=O)c2cccc3ccccc23)CC1`, the solubility kinetic was greater than 40.3 µg/mL. In the case of `NC(=O)COC(=O)/C=C/c1ccccc1[N+](=O)[O-]`, the solubility kinetic is reported as 33.1 µg/mL (≈ 132 µM). Work on `Cc1ccccc1N1CCN(Cc2ccc([N+](=O)[O-])o2)CC1` yielded a solubility kinetic of 34.3 µg/mL (≈ 114 µM). Work on `CC(OC(=O)[C@@H]1CCCN1C(=O)c1cccs1)C(=O)Nc1cccc([N+](=O)[O-])c1` (stereo not given in full) yielded a solubility kinetic of 18.4 µg/mL (≈ 44.1 µM). Work on `O=[N+]([O-])c1cc(/C=N/N2CCOCC2)cs1` yielded a solubility kinetic greater than 36.2 µg/mL. `CCOC(=O)C1CCN(CCC(=O)Nc2cc(C)ccc2C)CC1` gave a solubility kinetic greater than 49.9 µg/mL. With `CCOC(=O)c1sc(=S)n(CC)c1NC(=O)c1ccccc1` the solubility kinetic was 8.8 µg/mL (≈ 26.2 µM). With `Cc1ccc(NC(=O)c2cnccn2)cc1` the solubility kinetic was greater than 32 µg/mL. In the case of `COc1ccc(NC(=O)NCCCCc2ccccc2)cc1OC`, the solubility kinetic is reported as 0.6 µg/mL (≈ 1.83 µM). Molecule `COc1ccc(C)cc1NC(=O)CN(C)C1CCCCC1` has a solubility kinetic of 30.9 µg/mL (≈ 106 µM). With `Cc1ccc(C)c(NC(=O)c2cc(C)nc3ccccc23)c1` the solubility kinetic was 33.5 µg/mL (≈ 115 µM). Work on `COc1cc(/C=C(/C#N)C(=O)NCCCc2ccccc2)ccc1OCC(=O)O` yielded a solubility kinetic of 37.9 µg/mL (≈ 96.1 µM). For `O=C(CCNC(=O)c1ccc([N+](=O)[O-])cc1)Nc1nccs1`, the solubility kinetic was 12.9 µg/mL (≈ 40.3 µM). Work on `O=C1/C(=C/Nc2ccc3c(c2)OCO3)CCc2ccccc21` yielded a solubility kinetic of 1.4 µg/mL (≈ 4.77 µM). `CN(Cc1ccccc1)S(=O)(=O)c1ccc(N2CCOCC2)nc1` gave a solubility kinetic of 2.5 µg/mL (≈ 7.2 µM). In the case of `CC1(C)NC(=O)N(CC(=O)N2CCC(Cc3ccccc3)CC2)C1=O`, the solubility kinetic is reported as 50.1 µg/mL (≈ 146 µM). For `Cc1ccc(OCCNC(=O)c2ccccc2O)cc1`, the solubility kinetic was 4.5 µg/mL (≈ 16.6 µM). Work on `COCCn1c(SCC(=O)NCCCN2CCCC2=O)nc2ccccc2c1=O` yielded a solubility kinetic greater than 62.8 µg/mL. Molecule `Cc1nc2sccc2c(=O)n1N` has a solubility kinetic greater than 27.2 µg/mL. With `CSc1c(CN2CCN(C)CC2)c2ccccc2n1C.Cl` the solubility kinetic was 52.9 µg/mL. In the case of `COc1cccc(C(=O)c2c[nH]c(C(=O)NCCCN(C)C)c2)c1`, the solubility kinetic is reported as greater than 49.4 µg/mL. Molecule `CNC(=S)N1CCN(CCNC2=CC(=O)CC(C)(C)C2)CC1` has a solubility kinetic of 44.4 µg/mL (≈ 137 µM). With `O=C(CSCc1c(Cl)cccc1Cl)Nc1cccnc1` the solubility kinetic was 35.9 µg/mL (≈ 110 µM). `CC(C)N=C(NS(=O)(=O)c1cccs1)c1ccccc1` gave a solubility kinetic greater than 46.3 µg/mL. For `CCCCOc1nc(N2CCOCC2)nc(C)c1[N+](=O)[O-]`, the solubility kinetic was 1.5 µg/mL (≈ 5.06 µM). With `COC(=O)c1sc(NC(=O)COc2c(C)cccc2C)nc1C` the solubility kinetic was 0.4 µg/mL (≈ 1.2 µM). `COc1ccc(OC)c(NC(=O)CCCC(=O)NC2CCCCC2)c1` gave a solubility kinetic greater than 52.3 µg/mL. `CCN(CC)S(=O)(=O)c1ccc2[nH]c(=O)c3ccccc3c2c1` showed a solubility kinetic of less than 0.4 µg/mL. With `O=C(NN1C(=O)NC2(CCCCC2)C1=O)c1cc(F)cc(F)c1` the solubility kinetic was greater than 48.5 µg/mL. With `CC(C)CC(=O)N1CCN(C(=O)c2ccc(F)cc2)CC1` the solubility kinetic was greater than 43.9 µg/mL. `COc1ccc(NC(=O)COc2ccccc2)cc1NC(=O)c1ccco1` showed a solubility kinetic of 1.2 µg/mL (≈ 3.28 µM). Molecule `CC(=O)Nc1ccc(SC(C)C(=O)NC2CCCC2)cc1` (stereo not given) has a solubility kinetic greater than 46 µg/mL. Molecule `Cc1cc(C)n(-c2ccnc3cc(Cl)ccc23)n1` has a solubility kinetic greater than 38.7 µg/mL. `COc1cc(/C=C/C(=O)OCC(=O)NCCC2=CCCCC2)cc(OC)c1OC` gave a solubility kinetic of 33.3 µg/mL (≈ 82.5 µM). `O=C(c1ccc(NC(=S)NCc2ccco2)cc1)N1CCOCC1` showed a solubility kinetic of 41.6 µg/mL (≈ 120 µM). With `CC(C)C12CN3CC(C(C)C)(CN(C1)C3(C)C)C2=O` the solubility kinetic was 32 µg/mL (≈ 121 µM). In the case of `COc1ccccc1NC(=O)Nc1sccc1-c1nc2ccccc2s1`, the solubility kinetic is reported as 2.8 µg/mL (≈ 7.34 µM). `COc1ccc(CCNC(=O)C2CCC(=O)N2S(=O)(=O)c2ccc(C)cc2)cc1` (stereo not given) showed a solubility kinetic of 61.2 µg/mL (≈ 147 µM). Molecule `CCn1c(Oc2ccccc2C)nc2c1c(=O)n(C)c(=O)n2C` has a solubility kinetic greater than 47.2 µg/mL. `C/C(=N\O)C(=O)Nc1ccccc1` showed a solubility kinetic greater than 26.7 µg/mL. For `CN(C)c1nc(N(C)C)nc(N(C#N)Cc2ccc(Cl)cc2)n1`, the solubility kinetic was 0.3 µg/mL (≈ 0.904 µM).
